In patent publication US8110687B2, “Bicyclic compounds with kinase inhibitory activity” (Millennium Pharmaceuticals, Inc., priority 2005, dated 2012):

What follows are molecules tested on phospho-ERK formation (Raf kinase activity) in A375 cells (assay: Phospho-ERK ELISA assay). Conditions: Homo sapiens, A-375, 3 h, 3 hours with inhibitor, read-out: IC50, inhibition of the formation of phospho-ERK.
Assay type: cell-based
Experimental: Inhibition of Raf kinase activity in whole cell systems can be assessed by determining the decrease in phosphorylation of Raf kinase substrates. Any known Raf kinase substrate can be used to measure inhibition of Raf kinase activity in a whole cell system.
Medium was removed, and cells were incubated with Raf kinase inhibitors for 3 hours at 37° C. Medium was removed, and cells were fixed with 4% paraformaldehyde for 15 minutes at room temperature.
Methanol was added for 15 min. Cells were removed and blocked with 10% sheep serum and 1% BSA in PBS overnight at 4° C. Cells were incubated with anti-p44/42MAPK antibody (1:100, Cell Signaling Technologies, #9101L) (20 μL/well) for one hour at room temperature. After washing with PBS three times, cells were stained with anti-rabbit horseradish peroxidase-linked antibody from donkey (1:100, Amersham Bioscience #NA934V) for 1 hour at room temperature. Cells were washed three times with 0.5% Tween-20 in PBS and twice with PBS. 3,3′, 5,5′-Tetramethylbenzidine (TMB) liquid substrate system (Sigma, #T8665) (50 μL/well) was added, and cells were incubated for 30-45 minutes at room temperature. Optical density was read at 650 nm. Cells were then washed 3-5 times with PBS to remove color solution. Results were normalized for the protein content in each well using a BCA protein assay kit (Pierce).

IC50, ≤ 25 µM:
CC(C)NC(=O)c1cc(Oc2ccc3c(c2)CC(C(=O)Nc2cc(CN)cc(C(F)(F)F)c2)CC3)ccn1 (stereo not shown) [Compound I-229, 4-{[7-({[3-(aminomethyl)-5-(trifluoromethyl)phenyl]amino}carbonyl)-5,6,7,8-tetrahydronaphthalen-2-yl]oxy}-N-isopropylpyridine-2-carboxamide]
CC(C)(C)c1cccc(NC(=O)C2CCc3ccc(Oc4ccnc(N)c4)cc3C2)c1 (stereo not shown) [Compound I-235, 7-[(2-aminopyridin-4-yl)oxy]-N-(3-tert-butylphenyl)-1,2,3,4-tetrahydronaphthalene-2-carboxamide]
CNC(=O)c1cc(Oc2ccc3c(c2)C[C@H](C(=O)Nc2cc(CN)cc(C(F)(F)F)c2)CC3)ccn1 [Compound I-244, 4-{[(7R)-7-({[3-(aminomethyl)-5-(trifluoromethyl)phenyl]amino}carbonyl)-5,6,7,8-tetrahydronaphthalen-2-yl]oxy}-N-methylpyridine-2-carboxamide]
CC(=O)NCc1cc(Oc2ccc3c(c2)CC(C(=O)Nc2cccc(C(C)(C)C)c2)CC3)ccn1 (stereo not shown) [Compound I-246, 7-({2-[(acetylamino)methyl]pyridin-4-yl}oxy)-N-(3-tert-butylphenyl)-1,2,3,4-tetrahydronaphthalene-2-carboxamide]
CC(C)(C)c1cccc(NC(=O)C2CCc3ccc(Oc4ccnc(NS(C)(=O)=O)c4)cc3C2)c1 (stereo not shown) [Compound I-254, N-(3-tert-butylphenyl)-7-({2-[(methylsulfonyl)amino]pyridin-4-yl}-oxy)-1,2,3,4-tetrahydronaphthalene-2-carboxamide]
O=C(Nc1cc(C(F)(F)F)ccc1OCCN1CCNCC1)C1CCc2ccc(Oc3ccnc(C4=NCCN4)c3)cc2C1 (stereo not shown) [Compound I-261, 7-{[2-(4,5-dihydro-1H-imidazol-2-yl)pyridin-4-yl]oxy}-N-[2-(2-piperazin-1-ylethoxy)-5-(trifluoromethyl)phenyl]-1,2,3,4-tetrahydronaphthalene-2-carboxamide]
NCc1cc(NC(=O)C2CCc3ccc(Oc4ccnc(N)c4)cc3C2)cc(C(F)(F)F)c1 (stereo not shown) [Compound I-271, N-[3-(aminomethyl)-5-(trifluoromethyl)phenyl]-7-[(2-aminopyridin-4-yl)oxy]-1,2,3,4-tetrahydronaphthalene-2-carboxamide]
CC(=O)Nc1cc(Oc2ccc3c(c2)CC(C(=O)Nc2ccc(C(F)(F)F)cc2)CC3)ccn1 (stereo not shown) [Compound I-281, 7-{[2-(acetylamino)pyridin-4-yl]oxy}-N-[4-(trifluoromethyl)phenyl]-1,2,3,4-tetrahydronaphthalene-2-carboxamide]
CC(C)(C)c1cccc(NC(=O)c2cnc3ccc(Oc4ccncc4)cc3c2)c1 [Compound I-299, N-(3-tert-butylphenyl)-6-(pyridin-4-yloxy)quinoline-3-carboxamide]
CC(=O)Nc1cc(Oc2ccc3c(c2)CC(C(=O)Nc2ccc(Cl)cc2)CC3)ccn1 (stereo not shown) [Compound I-303, 7-{[2-(acetylamino)pyridin-4-yl]oxy}-N-(4-chlorophenyl)-1,2,3,4-tetrahydronaphthalene-2-carboxamide]
CC(C)(C)c1cccc(NC(=O)C2CCc3ccc(Oc4ccnc(CN)c4)cc3C2)c1 (stereo not shown) [Compound I-331, 7-{[2-(aminomethyl)pyridin-4-yl]oxy}-N-(3-tert-butylphenyl)-1,2,3,4-tetrahydronaphthalene-2-carboxamide]
CC(C)(C)c1cccc(NC(=O)c2ccc3ccc(Oc4ccnc(C#N)c4)cc3c2)c1 [Compound I-340, N-(3-tert-butylphenyl)-7-[(2-cyanopyridin-4-yl)oxy]-2-naphthamide]
Cn1cc(-c2cc(Oc3ccc4c(c3)CC(C(=O)Nc3cc(CN5CCCC5)cc(C(F)(F)F)c3)CC4)ccn2)cn1 (stereo not shown) [Compound I-344, 7-{[2-(1-methyl-1H-pyrazol-4-yl)pyridin-4-yl]oxy}-N-[3-(pyrrolidin-1-ylmethyl)-5-(trifluoromethyl)phenyl]-1,2,3,4-tetrahydronaphthalene-2-carboxamide]
CC(C)(C)c1cccc(NC(=O)C2COc3ccc(Oc4ccnc(C5=NCCN5)c4)cc3C2)c1 (stereo not shown) [Compound I-349, N-(3-tert-butylphenyl)-6-{[2-(4,5-dihydro-1H-imidazol-2-yl)pyridin-4-yl]oxy}chromane-3-carboxamide]
O=C(Nc1cc(OCCN2CCCC2)cc(C(F)(F)F)c1)c1cnc2ccc(Oc3ccncc3)cc2c1 [Compound I-351, 6-(pyridin-4-yloxy)-N-[3-(2-pyrrolidin-1-ylethoxy)-5-(trifluoromethyl)phenyl]quinoline-3-carboxamide]
NCc1cc(NC(=O)C2CCc3ccc(Oc4ccnc(C(=O)N5CCCC5)c4)cc3C2)cc(C(F)(F)F)c1 (stereo not shown) [Compound I-362, N-[3-(aminomethyl)-5-(trifluoromethyl)phenyl]-7-{[2-(pyrrolidin-1-ylcarbonyl)pyridin-4-yl]oxy}-1,2,3,4-tetrahydronaphthalene-2-carboxamide]
N=C(N)c1cc(Oc2ccc3ccc(C(=O)Nc4ccc(CN)c(C(F)(F)F)c4)cc3c2)ccn1 [Compound I-381, 7-({2-[amino(imino)methyl]pyridin-4-yl}oxy)-N-[4-(aminomethyl)-3-(trifluoromethyl)phenyl]-2-naphthamide]
CN1CCN(c2cc(Oc3ccc4c(c3)CC(C(=O)Nc3cccc(C(C)(C)C)c3)CC4)ccn2)CC1 (stereo not shown) [Compound I-415, N-(3-tert-butylphenyl)-7-{[2-(4-methylpiperazin-1-yl)pyridin-4-yl]oxy}-1,2,3,4-tetrahydronaphthalene-2-carboxamide]
CCNC(=O)NCc1cc(NC(=O)C2CCc3ccc(Oc4ccnc(C(=O)NC)c4)cc3C2)cc(C(F)(F)F)c1 (stereo not shown) [Compound I-420, 4-{[7-({[3-({[(ethylamino)carbonyl]amino}methyl)-5-(trifluoromethyl)phenyl]amino}carbonyl)-5,6,7,8-tetrahydronaphthalen-2-yl]-oxy}-N-methylpyridine-2-carboxamide]
CNC(=O)c1cc(Oc2ccc3c(c2)CC(NC(=O)c2ccc(Cl)c(C(F)(F)F)c2)CC3)ccn1 (stereo not shown) [Compound I-444, 4-[(7-{[4-chloro-3-(trifluoromethyl)benzoyl]amino}-5,6,7,8-tetrahydronaphthalen-2-yl)oxy]-N-methylpyridine-2-carboxamide]
CC(C)(C)c1cccc(NC(=O)c2cnc3ccc(Oc4ccnc(C#N)c4)cc3c2)c1 [Compound I-448, N-(3-tert-butylphenyl)-6-[(2-cyanopyridin-4-yl)oxy]quinoline-3-carboxamide]
CNC(=O)c1cc(Oc2ccc3c(c2)CC(NC(=O)c2cccc(C(C)(C)C)c2)CC3)ccn1 (stereo not shown) [Compound I-460, 4-({7-[(3-tert-butylbenzoyl)amino]-5,6,7,8-tetrahydronaphthalen-2-yl}oxy)-N-methylpyridine-2-carboxamide]
